Test results published in ChEMBL document CHEMBL3885881, “DrugMatrix”.

Species: Rattus norvegicus
Type: toxicity, organism-based, Sprague-Dawley
Details: in vivo, po, route oral GAVAGE, […]; for ABSOLUTE EOSINOPHIL / ABSOLUTE LYMPHOCYTE / ABSOLUTE MONOCYTE / ABSOLUTE SEGMENTED NEUTROPHIL / BASOPHIL / EOSINOPHIL / ERYTHROCYTE COUNT / HEMATOCRIT / HEMOGLOBIN / LEUKOCYTE COUNT / LYMPHOCYTE / MEAN CORPUSCULAR HEMOGLOBIN / MEAN CORPUSCULAR HEMOGLOBIN CONCENTRATION / MEAN CORPUSCULAR VOLUME / MONOCYTE / NEUTROPHIL / NUCLEATED RED BLOOD CELLS / PLATELET COUNT: tissue Blood; for ALANINE AMINOTRANSFERASE / ALBUMIN / ALKALINE PHOSPHATASE / ASPARTATE AMINOTRANSFERASE / BLOOD UREA NITROGEN / CARBON DIOXIDE / CHLORIDE / CHOLESTEROL / CREATINE PHOSPHOKINASE / CREATININE / GLUCOSE / LACTATE DEHYDROGENASE / LIPASE / PHOSPHORUS / POTASSIUM / SODIUM / TOTAL BILIRUBIN / TOTAL PROTEIN / URIC ACID: tissue Plasma
[1] = 0 mg/kg, 6 h, vehicle control, dose level Control, time 0.25 day
[2] = 0 mg/kg, 24 h, vehicle control, dose level Control, time 1 day
[3] = 400 mg/kg, 6 h, dose level Low, time 0.25 day

Description: DrugMatrix - Regimen: Single

## ClC(Cl)(Cl)Cl [CARBON TETRACHLORIDE]
[1]
  ABSOLUTE EOSINOPHIL: 61.17 CELLS/uL
  ABSOLUTE LYMPHOCYTE: 12625.83 CELLS/uL
  ABSOLUTE MONOCYTE: 417.17 CELLS/uL
  ABSOLUTE SEGMENTED NEUTROPHIL: 1595.83 CELLS/uL
  BASOPHIL: 0%
  EOSINOPHIL: 0.33%
  ERYTHROCYTE COUNT: 5.46 x10E6/uL
  HEMATOCRIT: 36.02%
  HEMOGLOBIN: 13.55 G/DL
  LEUKOCYTE COUNT: 14.7 x10E3/uL
  LYMPHOCYTE: 85.83%
  MEAN CORPUSCULAR HEMOGLOBIN: 24.87 pg
  MEAN CORPUSCULAR HEMOGLOBIN CONCENTRATION: 37.65 G/DL
  MEAN CORPUSCULAR VOLUME: 66.03 fL
  MONOCYTE: 2.67%
  NEUTROPHIL: 11.17%
  NUCLEATED RED BLOOD CELLS: 0 /100WBC
  PLATELET COUNT: 1072.33 x10E3/uL
  ALANINE AMINOTRANSFERASE: 63.33 u/L
  ALBUMIN: 4.58 G/DL
  ALKALINE PHOSPHATASE: 285 u/L
  ASPARTATE AMINOTRANSFERASE: 116.5 u/L
  BLOOD UREA NITROGEN: 9.17 mg/dL
  CARBON DIOXIDE: 18.83 mmol/L
  CHLORIDE: 104.5 MEQ/L
  CHOLESTEROL: 68.67 mg/dL
  CREATINE PHOSPHOKINASE: 421 u/L
  CREATININE: 0.58 mg/dL
  GLUCOSE: 160.67 mg/dL
  LACTATE DEHYDROGENASE: 396 u/L
  LIPASE: 10.33 u/L
  PHOSPHORUS: 12.25 mg/dL
  POTASSIUM: 6.42 MEQ/L
  SODIUM: 142.77 MEQ/L
  TOTAL BILIRUBIN: 0.25 mg/dL
  TOTAL PROTEIN: 5.48 G/DL
  URIC ACID: 1.65 mg/dL
0 mg/kg, 24 h, dose level Control, time 1 day
  HEMATOCRIT: 31.9%
[2]
  ABSOLUTE EOSINOPHIL: 23.83 CELLS/uL
  ABSOLUTE LYMPHOCYTE: 11026.5 CELLS/uL
  ABSOLUTE MONOCYTE: 98.5 CELLS/uL
  ABSOLUTE SEGMENTED NEUTROPHIL: 667.83 CELLS/uL
  BASOPHIL: 0%
  EOSINOPHIL: 0.17%
  ERYTHROCYTE COUNT: 4.92 x10E6/uL
  HEMOGLOBIN: 12.6 G/DL
  LEUKOCYTE COUNT: 11.82 x10E3/uL
  LYMPHOCYTE: 93%
  MEAN CORPUSCULAR HEMOGLOBIN: 25.7 pg
  MEAN CORPUSCULAR HEMOGLOBIN CONCENTRATION: 39.57 G/DL
  MEAN CORPUSCULAR VOLUME: 64.97 fL
  MONOCYTE: 0.83%
  NEUTROPHIL: 6%
  NUCLEATED RED BLOOD CELLS: 0 /100WBC
  PLATELET COUNT: 872.33 x10E3/uL
  ALANINE AMINOTRANSFERASE: 82.67 u/L
  ALBUMIN: 4.17 G/DL
  ALKALINE PHOSPHATASE: 321.83 u/L
  ASPARTATE AMINOTRANSFERASE: 99.5 u/L
  BLOOD UREA NITROGEN: 13.33 mg/dL
  CARBON DIOXIDE: 33.67 mmol/L
  CHLORIDE: 99.83 MEQ/L
  CHOLESTEROL: 64 mg/dL
  CREATINE PHOSPHOKINASE: 275.33 u/L
  CREATININE: 0.21 mg/dL
  GLUCOSE: 146.17 mg/dL
  LACTATE DEHYDROGENASE: 101 u/L
  LIPASE: 9.83 u/L
  PHOSPHORUS: 8.82 mg/dL
  POTASSIUM: 5.51 MEQ/L
  SODIUM: 143.2 MEQ/L
  TOTAL BILIRUBIN: 0.18 mg/dL
  TOTAL PROTEIN: 5.83 G/DL
  URIC ACID: 0.63 mg/dL
[3]
  ABSOLUTE EOSINOPHIL: 44 CELLS/uL
  ABSOLUTE LYMPHOCYTE: 11229.17 CELLS/uL
  ABSOLUTE MONOCYTE: 321.83 CELLS/uL
  ABSOLUTE SEGMENTED NEUTROPHIL: 3421.67 CELLS/uL
  BASOPHIL: 0%
  EOSINOPHIL: 0.33%
  ERYTHROCYTE COUNT: 6.19 x10E6/uL
  HEMATOCRIT: 40.97%
  HEMOGLOBIN: 15.07 G/DL
  LEUKOCYTE COUNT: 15.02 x10E3/uL
  LYMPHOCYTE: 73%
  MEAN CORPUSCULAR HEMOGLOBIN: 24.45 pg
  MEAN CORPUSCULAR HEMOGLOBIN CONCENTRATION: 36.95 G/DL
  MEAN CORPUSCULAR VOLUME: 66.17 fL
  MONOCYTE: 2.17%
  NEUTROPHIL: 24.5%
  NUCLEATED RED BLOOD CELLS: 0 /100WBC
  PLATELET COUNT: 1278.5 x10E3/uL
  ALANINE AMINOTRANSFERASE: 102.5 u/L
  ALBUMIN: 4.68 G/DL
  ALKALINE PHOSPHATASE: 305.83 u/L
  ASPARTATE AMINOTRANSFERASE: 279.83 u/L
  BLOOD UREA NITROGEN: 16.33 mg/dL
  CARBON DIOXIDE: 16.33 mmol/L
  CHLORIDE: 100.33 MEQ/L
  CHOLESTEROL: 70 mg/dL
  CREATINE PHOSPHOKINASE: 845.5 u/L
  CREATININE: 0.19 mg/dL
  GLUCOSE: 129.67 mg/dL
  LACTATE DEHYDROGENASE: 1003.17 u/L
  LIPASE: 9 u/L
  PHOSPHORUS: 15.78 mg/dL
  POTASSIUM: 7.57 MEQ/L
  SODIUM: 142.47 MEQ/L
  TOTAL BILIRUBIN: 0.3 mg/dL
  TOTAL PROTEIN: 6.17 G/DL
  URIC ACID: 3.2 mg/dL
